Laboratory results taken from BindingDB's records for doi:10.1021/jm00112a034 (Abbott Laboratories, 1991).

Biological target: dopamine D1 receptor (Cyprinus carpio)
Assay: Concentration required to inhibit 50% dopamine receptor D1 activity using cell free homogenate of carp retina

Row | SMILES | EC50 [µM]
1 | NC[C@@H]1OC(c2ccc(Br)cc2)Cc2c1ccc(O)c2O (stereo partly specified) | 0.001
2 | NC[C@@H]1OC(CCc2ccccc2)Cc2c1ccc(O)c2O (stereo partly specified) | 0.0052
3 | NC[C@@H]1OC(COc2ccccc2)Cc2c1ccc(O)c2O (stereo partly specified) | 0.024
4 | OCCCNC[C@@H]1OC(C2CCCCC2)Cc2c1ccc(O)c2O (stereo partly specified) | 1.74
5 | CCCCC1Cc2c(ccc(O)c2O)[C@H](CN)O1 (stereo partly specified) | 0.0063
6 | Oc1ccc2c(c1O)CC(C1CCCCC1)O[C@H]2CNC1CC1 (stereo partly specified) | 0.124
7 | COc1cccc(C2Cc3c(ccc(O)c3O)[C@H](CN)O2)c1 (stereo partly specified) | 0.0064
8 | C#CCNC[C@@H]1OC(C2CCCCC2)Cc2c1ccc(O)c2O (stereo partly specified) | 0.013
9 | NC[C@@H]1OC2(CCCCC2)Cc2c1ccc(O)c2O | 0.069
10 | CCCCCCC1Cc2c(ccc(O)c2O)[C@H](CN)O1 (stereo partly specified) | 0.014
11 | NC[C@@H]1OC(CC2CCCC2)Cc2c1ccc(O)c2O (stereo partly specified) | 0.0067
12 | NC[C@@H]1OC(Cc2ccccc2)Cc2c1ccc(O)c2O (stereo partly specified) | 0.034
13 | NC[C@@H]1OC(c2ccc(I)cc2)Cc2c1ccc(O)c2O (stereo partly specified) | 0.002
14 | NC[C@@H]1OC(COCc2ccccc2)Cc2c1ccc(O)c2O (stereo partly specified) | 0.089
15 | CC[C@@H]1Cc2c(ccc(O)c2O)[C@H](CN)O1 | 0.142
16 | CC[C@H]1Cc2c(ccc(O)c2O)[C@H](CN)O1 | 0.232
